ChEMBL document CHEMBL1201861, “Genomics of Drug Sensitity in Cancer screening data, Wellcome Trust Sanger Institute”

Assays:
NCI-H64 = assay: cells; assay type: functional, cell-based; details: Homo sapiens;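 further: growth inhibition of NCI-H64 cells, read out with a cell viability assay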
Description: SANGER: Inhibition of human NCI-H64 cell growth in a cell viability assay.

COLO-741 = assay: cells; assay type: functional, cell-based; details: Homo sapiens
Description: SANGER: Inhibition of human COLO-741 cell growth in a cell viability assay.

M059J = assay: cells; assay type: functional, cell-based; details: Homo sapiens;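 further: growth inhibition of M059J cells, read out with a cell viability assay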
Description: SANGER: Inhibition of human M059J cell growth in a cell viability assay.

G-402 = assay: cells; assay type: functional, cell-based; details: Homo sapiens
Description: SANGER: Inhibition of human G-402 cell growth in a cell viability assay.

MeWo = assay: cells; assay type: functional, cell-based; details: Homo sapiens;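 further: growth inhibition of MeWo cells, determined by a cell viability readout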
Description: SANGER: Inhibition of human Mewo cell growth in a cell viability assay.

CESS = assay: SANGER: Inhibition of human CESS cell growth in a cell viability assay.; assay type: functional, cell-based
LN-405 = assay: cells; assay type: functional, cell-based; details: Homo sapiens
Description: SANGER: Inhibition of human LN-405 cell growth in a cell viability assay.

HCT-116 = assay: cells; assay type: functional, cell-based; details: Homo sapiens
Description: SANGER: Inhibition of human HCT-116 cell growth in a cell viability assay.

IGR-1 = assay: cells; assay type: functional, cell-based; details: Homo sapiens;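 further: growth inhibition of human IGR-1 cells, read out with a cell viability assay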
Description: SANGER: Inhibition of human IGR-1 cell growth in a cell viability assay.

COR-L23 = assay: cells; assay type: functional, cell-based; details: Homo sapiens;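 further: cell viability assay measuring how strongly compounds suppress growth of COR-L23 cells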
Description: SANGER: Inhibition of human COR-L23 cell growth in a cell viability assay.

CaR-1 = assay: cells; assay type: functional, cell-based; details: Homo sapiens;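 further: growth inhibition of human CaR-1 cancer cells, read out with a cell viability assay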
Description: SANGER: Inhibition of human CaR-1 cell growth in a cell viability assay.

SK-MEL-24 = assay: cells; assay type: functional, cell-based; details: Homo sapiens;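 further: growth inhibition read out by a cell viability assay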
Description: SANGER: Inhibition of human SK-MEL-24 cell growth in a cell viability assay.

PA-1 = assay: cells; assay type: functional, cell-based; details: Homo sapiens;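 further: IC50 for suppression of PA-1 cell proliferation, determined with a cell viability read-out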
Description: SANGER: Inhibition of human PA-1 cell growth in a cell viability assay.

CAL-39 = assay: cells; assay type: functional, cell-based; details: Homo sapiens;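 further: cell viability assay measuring growth inhibition of CAL-39 cells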
Description: SANGER: Inhibition of human CAL-39 cell growth in a cell viability assay.

EB-3 = assay: cells; assay type: functional, cell-based; details: Homo sapiens;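 further: human EB-3 cells, growth inhibition read out via a cell viability assay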
Description: SANGER: Inhibition of human EB-3 cell growth in a cell viability assay.

BEN = assay: cells; assay type: functional, cell-based; details: Homo sapiens;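 further: growth inhibition of the BEN cell line, read out with a cell viability assay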
Description: SANGER: Inhibition of human BEN cell growth in a cell viability assay.

KYSE-270 = assay: cells; assay type: functional, cell-based; details: Homo sapiens;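 further: cell growth inhibition measured with a viability assay in the human KYSE-270 line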
Description: SANGER: Inhibition of human KYSE-270 cell growth in a cell viability assay.

MHH-ES-1 = assay: cells; assay type: functional, cell-based; details: Homo sapiens
Description: SANGER: Inhibition of human MHH-ES-1 cell growth in a cell viability assay.

BXPC-3 = assay: cells; assay type: functional, cell-based; details: Homo sapiens;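 further: growth inhibition of human BxPC-3 cells, read out by a cell viability assay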
Description: SANGER: Inhibition of human BxPC-3 cell growth in a cell viability assay.

RO82-W-1 = assay: cells; assay type: functional, cell-based; details: Homo sapiens;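 further: growth inhibition of human RO82-W-1 cells, measured with a cell viability assay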
Description: SANGER: Inhibition of human RO82-W-1 cell growth in a cell viability assay.

UMUC3 = assay: cells; assay type: functional, cell-based; details: Homo sapiens;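 further: growth inhibition of human UM-UC-3 cells, read out with a cell viability assay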
Description: SANGER: Inhibition of human UM-UC-3 cell growth in a cell viability assay.

NCI-H1437 = assay: cells; assay type: functional, cell-based; details: Homo sapiens;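 further: growth inhibition of human NCI-H1437 cells, read out by a cell viability assay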
Description: SANGER: Inhibition of human NCI-H1437 cell growth in a cell viability assay.

BOKU = assay: cells; assay type: functional, cell-based; details: Homo sapiens;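 further: growth inhibition of the human BOKU cell line, read out by a cell viability assay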
Description: SANGER: Inhibition of human BOKU cell growth in a cell viability assay.

Hs-578T = assay: cells; assay type: functional, cell-based; details: Homo sapiens
Description: SANGER: Inhibition of human Hs-578-T cell growth in a cell viability assay.

SW948 = assay: cells; assay type: functional, cell-based; details: Homo sapiens;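 further: growth inhibition of SW948 cells, read out with a cell viability assay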
Description: SANGER: Inhibition of human SW948 cell growth in a cell viability assay.

DOK = assay: cells; assay type: functional, cell-based; details: Homo sapiens;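 further: cell viability assay read-out, values reflect inhibition of cell growth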
Description: SANGER: Inhibition of human DOK cell growth in a cell viability assay.

HLE = assay: cells; assay type: functional, cell-based; details: Homo sapiens;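 further: growth inhibition of human HLE cells, read out by a cell viability assay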
Description: SANGER: Inhibition of human HLE cell growth in a cell viability assay.

SW1088 = assay: cells; assay type: functional, cell-based; details: Homo sapiens;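 further: growth inhibition of human SW1088 cells, read out by a cell viability assay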
Description: SANGER: Inhibition of human SW1088 cell growth in a cell viability assay.

NCI-H716 = assay: cells; assay type: functional, cell-based; details: Homo sapiens;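 further: growth inhibition of human NCI-H716 cells, measured by a cell viability assay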
Description: SANGER: Inhibition of human NCI-H716 cell growth in a cell viability assay.

HuO-3N1 = assay: cells; assay type: functional, cell-based; details: Homo sapiens;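 further: cell viability readout used to measure how strongly compounds suppress proliferation of human HuO-3N1 cells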
Description: SANGER: Inhibition of human HuO-3N1 cell growth in a cell viability assay.

IM-9 = assay: SANGER: Inhibition of human IM-9 cell growth in a cell viability assay.; assay type: functional, cell-based
NCI-H1651 = assay: cells; assay type: functional, cell-based; details: Homo sapiens;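 further: Read-out is a cell viability assay, with IC50 expressing inhibition of NCI-H1651 cell growth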
Description: SANGER: Inhibition of human NCI-H1651 cell growth in a cell viability assay.

NALM-6 = assay: cells; assay type: functional, cell-based; details: Homo sapiens;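 further: growth inhibition of NALM-6 cells, read out with a cell viability assay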
Description: SANGER: Inhibition of human NALM-6 cell growth in a cell viability assay.

SW1710 = assay: cells; assay type: functional, cell-based; details: Homo sapiens;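 further: growth inhibition of SW1710 cells, determined with a cell viability assay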
Description: SANGER: Inhibition of human SW1710 cell growth in a cell viability assay.

KYSE-70 cell line = assay: cells; assay type: functional, cell-based; details: Homo sapiens;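 further: cell viability assay read-out, with IC50 expressing suppression of KYSE-70 cell growth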
Description: SANGER: Inhibition of human KYSE-70 cell growth in a cell viability assay.

OE19 = assay: cells; assay type: functional, cell-based; details: Homo sapiens;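 further: growth inhibition of OE19 cells, measured through a cell viability read-out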
Description: SANGER: Inhibition of human OE19 cell growth in a cell viability assay.

LCLC-97TM1 = assay: cells; assay type: functional, cell-based; details: Homo sapiens;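 further: cell viability assay measuring growth inhibition of human LCLC-97TM1 cells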
Description: SANGER: Inhibition of human LCLC-97TM1 cell growth in a cell viability assay.

CAKI-1 = assay: cells; assay type: functional, cell-based; details: Homo sapiens;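 further: growth inhibition of CAKI-1 cells, measured by a cell viability assay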
Description: SANGER: Inhibition of human CAKI-1 cell growth in a cell viability assay.

SW1463 = assay: cells; assay type: functional, cell-based; details: Homo sapiens;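 further: growth inhibition of SW1463 cells, determined with a cell viability assay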
Description: SANGER: Inhibition of human SW1463 cell growth in a cell viability assay.

SK-N-AS = assay: cells; assay type: functional, cell-based; details: Homo sapiens;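 further: growth inhibition of human SK-N-AS cells, measured with a cell viability assay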
Description: SANGER: Inhibition of human SK-N-AS cell growth in a cell viability assay.

NCI-H1623 = assay: cells; assay type: functional, cell-based; details: Homo sapiens;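 further: cell viability assay used as the read-out for growth inhibition of NCI-H1623 cells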
Description: SANGER: Inhibition of human NCI-H1623 cell growth in a cell viability assay.

NCI-H2347 = assay: cells; assay type: functional, cell-based; details: Homo sapiens;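 further: growth inhibition of the cell line, read out with a cell viability assay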
Description: SANGER: Inhibition of human NCI-H2347 cell growth in a cell viability assay.

NCI-H2452 = assay: cells; assay type: functional, cell-based; details: Homo sapiens;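 further: growth inhibition of NCI-H2452 cells, read out with a cell viability assay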
Description: SANGER: Inhibition of human NCI-H2452 cell growth in a cell viability assay.

NCI-H460 = assay: cells; assay type: functional, cell-based; details: Homo sapiens;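 further: cell viability assay scoring growth inhibition of human NCI-H460 cells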
Description: SANGER: Inhibition of human NCI-H460 cell growth in a cell viability assay.

ABC-1 = assay: cells; assay type: functional, cell-based; details: Homo sapiens;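 further: growth inhibition of human ABC-1 cells, read out by a cell viability assay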
Description: SANGER: Inhibition of human ABC-1 cell growth in a cell viability assay.

EGI-1 = assay: cells; assay type: functional, cell-based; details: Homo sapiens;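 further: cell viability readout used to gauge growth inhibition of EGI-1 cells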
Description: SANGER: Inhibition of human EGI-1 cell growth in a cell viability assay.

T84 = assay: cells; assay type: functional, cell-based; details: Homo sapiens;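 further: growth inhibition measured with a cell viability readout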
Description: SANGER: Inhibition of human T84 cell growth in a cell viability assay.

NCI-H719 = assay: cells; assay type: functional, cell-based; details: Homo sapiens;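 further: growth inhibition of the cultured cell line, read out with a viability assay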
Description: SANGER: Inhibition of human NCI-H719 cell growth in a cell viability assay.

SK-MEL-28 = assay: cells; assay type: functional, cell-based; details: Homo sapiens;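 further: growth inhibition of human SK-MEL-28 cells, read out with a cell viability assay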
Description: SANGER: Inhibition of human SK-MEL-28 cell growth in a cell viability assay.

RPMI-6666 = assay: cells; assay type: functional, cell-based; details: Homo sapiens
Description: SANGER: Inhibition of human RPMI-6666 cell growth in a cell viability assay.

UACC-812 = assay: cells; assay type: functional, cell-based; details: Homo sapiens
Description: SANGER: Inhibition of human UACC-812 cell growth in a cell viability assay.

PC-14 = assay: cells; assay type: functional, cell-based; details: Homo sapiens;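 further: cell viability assay measuring inhibition of PC-14 cell growth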
Description: SANGER: Inhibition of human PC-14 cell growth in a cell viability assay.

TCC-SUP = assay: cells; assay type: functional, cell-based; details: Homo sapiens;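 further: growth inhibition of TCC-SUP cells, read out with a cell viability assay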
Description: SANGER: Inhibition of human TCCSUP cell growth in a cell viability assay.

NCI-H1693 = assay: cells; assay type: functional, cell-based; details: Homo sapiens;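 further: growth inhibition of the human cell line, read out with a cell viability assay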
Description: SANGER: Inhibition of human NCI-H1693 cell growth in a cell viability assay.

NCI-H358 = assay: cells; assay type: functional, cell-based; details: Homo sapiens;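 further: growth inhibition of NCI-H358 human cells, read out with a cell viability assay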
Description: SANGER: Inhibition of human NCI-H358 cell growth in a cell viability assay.

KYSE-140 = assay: cells; assay type: functional, cell-based; details: Homo sapiens;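 further: cell viability assay measuring growth inhibition in human KYSE-140 cells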
Description: SANGER: Inhibition of human KYSE-140 cell growth in a cell viability assay.

SCLC-21H = assay: cells; assay type: functional, cell-based; details: Homo sapiens;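 further: growth inhibition of cultured human SCLC-21H cells, read out with a cell viability assay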
Description: SANGER: Inhibition of human SCLC-21H cell growth in a cell viability assay.

HuP-T4 = assay: cells; assay type: functional, cell-based; details: Homo sapiens
Description: SANGER: Inhibition of human HuP-T4 cell growth in a cell viability assay.

U2OS = assay: cells; assay type: functional, cell-based, U-2-OS; details: Homo sapiens
Description: SANGER: Inhibition of human U-2-OS cell growth in a cell viability assay.

J82 = assay: cells; assay type: functional, cell-based; details: Homo sapiens
Description: SANGER: Inhibition of human J82 cell growth in a cell viability assay.

DMS-273 = assay: cells; assay type: functional, cell-based; details: Homo sapiens
Description: SANGER: Inhibition of human DMS-273 cell growth in a cell viability assay.

ARH-77 = assay: cells; assay type: functional, cell-based; details: Homo sapiens
Description: SANGER: Inhibition of human ARH-77 cell growth in a cell viability assay.

CCNC(=O)c1noc(-c2cc(C(C)C)c(O)cc2O)c1-c1ccc(CN2CCOCC2)cc1 [LUMINESPIB]
IC50 (NCI-H64): > 256 nM | IC50 (COLO-741): 55.3 nM | IC50 (M059J): 22.4 nM | IC50 (G-402): 36.1 nM | IC50 (MeWo): > 256 nM | IC50 (CESS): 31.2 nM | IC50 (LN-405): > 256 nM | IC50 (HCT-116): 152 nM | IC50 (IGR-1): 20.5 nM | IC50 (COR-L23): 27.1 nM | IC50 (CaR-1): > 256 nM | IC50 (SK-MEL-24): 42.8 nM | IC50 (PA-1): 27.6 nM | IC50 (CAL-39): 14.2 nM | IC50 (EB-3): 224 nM | IC50 (BEN): 116 nM | IC50 (KYSE-270): 10.6 nM | IC50 (MHH-ES-1): 12.6 nM | IC50 (BXPC-3): 43.4 nM | IC50 (RO82-W-1): > 256 nM | IC50 (UMUC3): 49.5 nM | IC50 (NCI-H1437): 63.3 nM | IC50 (BOKU): 66.7 nM | IC50 (Hs-578T): > 256 nM | IC50 (SW948): > 256 nM | IC50 (DOK): > 256 nM | IC50 (HLE): 60.8 nM | IC50 (SW1088): > 256 nM | IC50 (NCI-H716): > 256 nM | IC50 (HuO-3N1): > 256 nM | IC50 (IM-9): 235 nM | IC50 (NCI-H1651): 24.3 nM | IC50 (NALM-6): 0.842 nM | IC50 (SW1710): 1.86 nM | IC50 (KYSE-70 cell line): 38.1 nM | IC50 (OE19): 19.5 nM | IC50 (LCLC-97TM1): 13 nM | IC50 (CAKI-1): 251 nM | IC50 (SW1463): > 256 nM | IC50 (SK-N-AS): > 256 nM | IC50 (NCI-H1623): > 256 nM | IC50 (NCI-H2347): 80.3 nM | IC50 (NCI-H2452): > 256 nM | IC50 (NCI-H460): 13.4 nM | IC50 (ABC-1): 87.6 nM | IC50 (EGI-1): 180 nM | IC50 (T84): 13.3 nM | IC50 (NCI-H719): > 256 nM | IC50 (SK-MEL-28): > 256 nM | IC50 (RPMI-6666): 8.52 nM | IC50 (UACC-812): > 256 nM | IC50 (PC-14): 19.3 nM | IC50 (TCC-SUP): > 256 nM | IC50 (NCI-H1693): 36.2 nM | IC50 (NCI-H358): 42.1 nM | IC50 (KYSE-140): 20.2 nM | IC50 (SCLC-21H): > 256 nM | IC50 (HuP-T4): 65.9 nM | IC50 (U2OS): 39.4 nM | IC50 (J82): 30.1 nM | IC50 (DMS-273): 34.8 nM | IC50 (ARH-77): 53.9 nM

CC(O)(CS(=O)(=O)c1ccc(F)cc1)C(=O)Nc1ccc(C#N)c(C(F)(F)F)c1 (centres undefined) [BICALUTAMIDE]
IC50 (NCI-H64): > 1020 nM | IC50 (COLO-741): > 1020 nM | IC50 (M059J): > 1020 nM | IC50 (G-402): > 1020 nM | IC50 (MeWo): > 1020 nM | IC50 (CESS): > 1020 nM | IC50 (LN-405): > 1020 nM | IC50 (HCT-116): > 1020 nM | IC50 (IGR-1): > 1020 nM | IC50 (COR-L23): > 1020 nM | IC50 (CaR-1): > 1020 nM | IC50 (SK-MEL-24): > 1020 nM | IC50 (PA-1): > 1020 nM | IC50 (CAL-39): > 1020 nM | IC50 (EB-3): > 1020 nM | IC50 (BEN): > 1020 nM | IC50 (KYSE-270): > 1020 nM | IC50 (MHH-ES-1): > 1020 nM | IC50 (BXPC-3): > 1020 nM | IC50 (RO82-W-1): > 1020 nM | IC50 (UMUC3): > 1020 nM | IC50 (NCI-H1437): > 1020 nM | IC50 (BOKU): > 1020 nM | IC50 (Hs-578T): > 1020 nM | IC50 (SW948): > 1020 nM | IC50 (DOK): > 1020 nM | IC50 (HLE): > 1020 nM | IC50 (SW1088): > 1020 nM | IC50 (NCI-H716): > 1020 nM | IC50 (HuO-3N1): > 1020 nM | IC50 (IM-9): > 1020 nM | IC50 (NCI-H1651): > 1020 nM | IC50 (NALM-6): > 1020 nM | IC50 (SW1710): > 1020 nM | IC50 (KYSE-70 cell line): > 1020 nM | IC50 (OE19): > 1020 nM | IC50 (LCLC-97TM1): > 1020 nM | IC50 (CAKI-1): > 1020 nM | IC50 (SW1463): > 1020 nM | IC50 (SK-N-AS): > 1020 nM | IC50 (NCI-H1623): > 1020 nM | IC50 (NCI-H2347): > 1020 nM | IC50 (NCI-H2452): > 1020 nM | IC50 (NCI-H460): > 1020 nM | IC50 (ABC-1): > 1020 nM | IC50 (EGI-1): > 1020 nM | IC50 (T84): > 1020 nM | IC50 (NCI-H719): > 1020 nM | IC50 (SK-MEL-28): > 1020 nM | IC50 (RPMI-6666): > 1020 nM | IC50 (UACC-812): > 1020 nM | IC50 (PC-14): > 1020 nM | IC50 (TCC-SUP): > 1020 nM | IC50 (NCI-H1693): > 1020 nM | IC50 (NCI-H358): > 1020 nM | IC50 (KYSE-140): > 1020 nM | IC50 (SCLC-21H): > 1020 nM | IC50 (HuP-T4): > 1020 nM | IC50 (U2OS): > 1020 nM | IC50 (J82): > 1020 nM | IC50 (DMS-273): > 1020 nM | IC50 (ARH-77): > 1020 nM
